Test results: the supplement of paper PMC11451515

Test system: SEM cells
Assay: cell viability relative to DMSO control; higher = less cytotoxic
Conditions: 48 h
Method in brief: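 Viability was expressed as a per-plate percentage of DMSO wells, with cell-free wells as background. Leukemia cells (NOMO1 or SEM at 500 cells/well, P12-Ichikawa at 1000 cells/well) were adapted for at least four passages in each medium and seeded in 1536-well plates (5 μl). Library compounds in DMSO were pin-dosed over an 11-point threefold series from 47 μM to 0.79 nM, and CellTiter-Glo One luminescence was read after 48 h at 37°C.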

[1] = HPLM + 10% dialyzed FBS, 0.000781 µM
[2] = HPLM + 10% dialyzed FBS, 0.00234 µM
[3] = HPLM + 10% dialyzed FBS, 0.00702 µM
[4] = HPLM + 10% dialyzed FBS, 0.0211 µM
[5] = HPLM + 10% dialyzed FBS, 0.0632 µM
[6] = HPLM + 10% dialyzed FBS, 0.19 µM
[7] = HPLM + 10% dialyzed FBS, 0.569 µM
[8] = HPLM + 10% dialyzed FBS, 1.71 µM
[9] = HPLM + 10% dialyzed FBS, 5.12 µM
[10] = HPLM + 10% dialyzed FBS, 15.4 µM
[11] = HPLM + 10% dialyzed FBS, 46.1 µM
[12] = RPMI 5 mM glucose + 10% FBS, 0.000781 µM
[13] = RPMI 5 mM glucose + 10% FBS, 0.00234 µM
[14] = RPMI 5 mM glucose + 10% FBS, 0.00702 µM
[15] = RPMI 5 mM glucose + 10% FBS, 0.0211 µM
[16] = RPMI 5 mM glucose + 10% FBS, 0.0632 µM
[17] = RPMI 5 mM glucose + 10% FBS, 0.19 µM
[18] = RPMI 5 mM glucose + 10% FBS, 0.569 µM
[19] = RPMI 5 mM glucose + 10% FBS, 1.71 µM
[20] = RPMI 5 mM glucose + 10% FBS, 5.12 µM
[21] = RPMI 5 mM glucose + 10% FBS, 15.4 µM
[22] = RPMI 5 mM glucose + 10% FBS, 46.1 µM
[23] = RPMI 5 mM glucose + 10% dialyzed FBS, 0.000781 µM
[24] = RPMI 5 mM glucose + 10% dialyzed FBS, 0.00234 µM
[25] = RPMI 5 mM glucose + 10% dialyzed FBS, 0.00702 µM
[26] = RPMI 5 mM glucose + 10% dialyzed FBS, 0.0211 µM
[27] = RPMI 5 mM glucose + 10% dialyzed FBS, 0.0632 µM
[28] = RPMI 5 mM glucose + 10% dialyzed FBS, 0.19 µM
[29] = RPMI 5 mM glucose + 10% dialyzed FBS, 0.569 µM
[30] = RPMI 5 mM glucose + 10% dialyzed FBS, 1.71 µM
[31] = RPMI 5 mM glucose + 10% dialyzed FBS, 5.12 µM
[32] = RPMI 5 mM glucose + 10% dialyzed FBS, 15.4 µM
[33] = RPMI 5 mM glucose + 10% dialyzed FBS, 46.1 µM

SMILES | cell viability [1] | cell viability [2] | cell viability [3] | cell viability [4] | cell viability [5] | cell viability [6] | cell viability [7] | cell viability [8] | cell viability [9] | cell viability [10] | cell viability [11] | cell viability [12] | cell viability [13] | cell viability [14] | cell viability [15] | cell viability [16] | cell viability [17] | cell viability [18] | cell viability [19] | cell viability [20] | cell viability [21] | cell viability [22] | cell viability [23] | cell viability [24] | cell viability [25] | cell viability [26] | cell viability [27] | cell viability [28] | cell viability [29] | cell viability [30] | cell viability [31] | cell viability [32] | cell viability [33]
COc1cc2c(Oc3ccc(NC(=O)C4(C(=O)Nc5ccc(F)cc5)CC4)cc3F)ccnc2cc1OCCCN1CCOCC1 | 45.9% | 38.6% | 35.5% | 35.9% | 33.8% | 31.9% | 32.3% | 16.1% | 19.9% | 17.1% | 3.11% | 59.2% | 45.2% | 42.3% | 43.6% | 37.4% | 33.6% | 42.5% | 13.5% | 10.9% | 7.49% | 3.41% | 41.9% | 28.5% | 34.8% | 28.2% | 23.9% | 25.3% | 25.7% | 9.12% | 11.7% | 8.88% | 2.51%
CO[C@H]1C[C@@H]2CC[C@@H](C)[C@@](O)(O2)C(=O)C(=O)N2CCCC[C@H]2C(=O)O[C@H]([C@H](C)C[C@@H]2CC[C@@H](OC(=O)C(C)(CO)CO)[C@H](OC)C2)CC(=O)[C@H](C)/C=C(\C)[C@@H](O)[C@@H](OC)C(=O)[C@H](C)C[C@H](C)/C=C/C=C/C=C/1C | 80.2% | 93.3% | 88% | 77.7% | 76.5% | 74.5% | 64.7% | 55.4% | 57.7% | 49.1% | 41.6% | 71.2% | 78.2% | 70.1% | 61.6% | 60.5% | 56.3% | 57.7% | 52.4% | 50.5% | 27.3% | 15.7% | 87.4% | 97.1% | 91.2% | 73.1% | 84.6% | 83.1% | 64.4% | 61.8% | 67.4% | 58.4% | 23.2%
CCc1c(C(=O)C(N)=O)c2c(OCC(=O)O)cccc2n1Cc1ccccc1 | 103% | 93.2% | 94.3% | 107% | 98.7% | 104% | 102% | 98.2% | 90.8% | 88.3% | 84.5% | 101% | 100% | 116% | 110% | 90.8% | 98.4% | 111% | 111% | 114% | 88.4% | 82.6% | 92.9% | 102% | 104% | 116% | 104% | 105% | 123% | 92.7% | 106% | 91.9% | 89.3%
Clc1cc(Cl)cc(CNc2ncncc2-c2ccc3c(c2)OCO3)c1 | 93.3% | 101% | 95.7% | 97.4% | 89% | 104% | 92.2% | 105% | 90.4% | 89.1% | 29.7% | 100% | 97.4% | 98.4% | 94.5% | 92.7% | 110% | 103% | 86.6% | 92.3% | 86.6% | 5.5% | 90.5% | 95.3% | 102% | 99.7% | 90.5% | 96.8% | 80.4% | 100% | 105% | 86.2% | 28.3%
CN(C)C(=O)c1ccc([S+](=O)([O-])c2ccc(NC(=O)[C@@](C)(O)C(F)(F)F)c(Cl)c2)cc1 | 98.1% | 105% | 104% | 112% | 110% | 104% | 129% | 120% | 118% | 116% | 80% | 95.3% | 122% | 110% | 109% | 124% | 108% | 112% | 123% | 120% | 24.3% | 4.66% | 99.3% | 98.8% | 108% | 102% | 107% | 88% | 103% | 111% | 111% | 72.8% | 20.9%
Oc1ccc(/C=C/c2cc(O)cc(O)c2)cc1 | 99.5% | 113% | 106% | 104% | 115% | 110% | 112% | 121% | 118% | 97.6% | 10.4% | 105% | 107% | 85.6% | 100% | 103% | 108% | 111% | 94.9% | 101% | 22.7% | 5.07% | 114% | 115% | 97.2% | 98.4% | 100% | 92.8% | 103% | 103% | 111% | 73.7% | 7.98%
